Source: US11976056B2, “Substituted alkoxypyridinyl indolsulfonamides” (UCB Pharma GmbH, priority 2018, dated 2024)

tested on: CYP1A2; experiment: CYP 450-1A2 induction assay in cryopreserved human hepatocytes; assay type: in vitro ADME; conditions: 10 μM test compound, 72 h, compared to vehicle control
Protocol: Cryopreserved human hepatocytes from a single donor are seeded on a 96 well collagen coated plate so that the final seeding density is 0.1×10^6 cells/well (final volume per well 0.1 mL). The cells are then incubated in seeding medium at 37° C., 95% humidity, 5% CO2 to allow the cells to attach. After 4 h, the seeding medium is replaced with 0.1 mL of pre warmed serum free Williams E medium containing 100 IU/mL penicillin, 100 μg/mL streptomycin, 10 μg/mL insulin, 2 mM L glutamine and 0.1 μM hydrocortisone.
The next day, cells are dosed with test compound in assay medium (final test compound concentration 10 μM; final DMSO concentration 0.1%). Positive control inducers, omeprazole (50 μM) for CYP1A2, phenobarbital (500 μM) for CYP2B6 and rifampicin (10 μM) for CYP3A4, are incubated alongside the test compound. Negative control wells are included where the test compound is replaced by vehicle solvent (0.1% DMSO in assay medium). Each test compound is dosed in triplicate. The cells are exposed to the solutions for 72 h with fresh solution added every 24 h.
For catalytic activity determination, a solution of the probe substrates, phenacetin (final concentration 25 μM), bupropion (final concentration 100 μM) and midazolam (final concentration 2.5 μM) is prepared in pre warmed assay medium. At the end of the 72 h exposure period, the media is replaced with the cocktail of probe substrates. The hepatocytes are incubated for 30 min. An aliquot is removed at the end of the incubation period and placed into methanol containing internal standard in a 1:2 ratio. The samples are centrifuged at 2500 rpm at 4° C. for 20 min. An aliquot of supernatant is diluted with deionised water and levels of acetaminophen, hydroxybupropion and 1 hydroxymidazolam are quantified using Cyprotex generic LC MS/MS methods.
The hepatocytes are solubilised in 0.1M sodium hydroxide at room temperature and protein content in each well determined using Pierce™ BCA Protein Assay Kit (Thermo Scientific) using bovine serum albumin as a standard.
For catalytic activity determination, the concentration of metabolite formed at each test compound replicate is converted to CYP activity and normalised to protein. The fold change is determined by comparing to the vehicle control wells. The fold change observed at each test compound concentration is expressed as a percentage of the positive control compounds for each P450 isoform.

Question: For `O=S(=O)(Nc1nc(F)c(OCCF)cc1F)c1c[nH]c2cc(Cl)ccc12` [Comparative Example 1, 6-chloro-N-[3,6-difluoro-5-(2-fluoroethoxy)pyridin-2-yl]-1H-indole-3-sulfonamide, reference compound], which “induction of CYP1A2” value is on record?
Answer: 16 fold

Question: With `O=S(=O)(Nc1nc(F)c(OCCF)cc1F)c1c[nH]c2c(OC3CC3)c(Cl)ccc12` [Example I-2, 6-chloro-7-cyclopropyloxy-N-[3,6-difluoro-5-(2-fluoroethoxy)pyridin-2-yl]-1H-indole-3-sulfonamide] as the molecule, how does the “induction of CYP1A2” value read?
Answer: no CYP1A2 induction

Question: Which “induction of CYP1A2” value does the source give for `O=S(=O)(Nc1nc(F)c(OCCF)cc1F)c1c[nH]c2c(Cl)c(Cl)ccc12` [Example I-1, 6,7-dichloro-N-[3,6-difluoro-5-(2-fluoroethoxy)pyridin-2-yl]-1H-indole-3-sulfonamide] here?
Answer: no CYP1A2 induction

Question: With `O=S(=O)(Nc1nc(F)c(OCCF)cc1F)c1c[nH]c2c(C3CC3)c(Cl)ccc12` [Example I-12, 6-chloro-7-cyclopropyl-N-[3,6-difluoro-5-(2-fluoroethoxy)pyridin-2-yl]-1H-indole-3-sulfonamide] as the molecule, how does the “induction of CYP1A2” value read?
Answer: no CYP1A2 induction

Question: With `O=S(=O)(Nc1nc(F)c(OCCF)cc1F)c1c[nH]c2c(C(F)F)c(Cl)ccc12` [Example I-3, 6-chloro-N-[3,6-difluoro-5-(2-fluoroethoxy)pyridin-2-yl]-7-(difluoromethyl)-1H-indole-3-sulfonamide] as the molecule, how does the “induction of CYP1A2” value read?
Answer: no CYP1A2 induction

molecular target: T1, GPR17 (Homo sapiens, UniProt Q13304); experiment: not given; conditions: activating ligands for GPR17; cited from earlier work
Target sequence in this assay (Q13304 whole entry, species assumed): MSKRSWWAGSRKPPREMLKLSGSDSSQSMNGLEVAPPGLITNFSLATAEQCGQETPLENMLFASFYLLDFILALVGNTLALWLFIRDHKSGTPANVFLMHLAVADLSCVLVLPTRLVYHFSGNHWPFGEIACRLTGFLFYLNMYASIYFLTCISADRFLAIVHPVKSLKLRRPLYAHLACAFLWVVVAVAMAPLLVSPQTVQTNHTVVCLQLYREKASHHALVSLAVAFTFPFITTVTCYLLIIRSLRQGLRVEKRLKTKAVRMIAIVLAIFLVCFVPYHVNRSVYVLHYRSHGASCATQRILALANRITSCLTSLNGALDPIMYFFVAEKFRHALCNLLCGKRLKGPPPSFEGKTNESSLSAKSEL

Question: For `NCc1[nH]cc(CCC(=O)O)c1CC(=O)O` [PBG, porphobilinogen], which “amounts needed in the assays” value is on record?
Answer: mM range

Question: With `NCC(=O)CCC(=O)O` [Example 5-ALA, 5 amino levulinic acid] as the molecule, how does the “amounts needed in the assays” value read?
Answer: three digit micromolar range

molecular target: T1, GPR17; experiment: cAMP accumulation functional assay (HTRF, Schild analysis vs MDL29,951); assay type: cell-based; parameters: host or cells: Flp-In T-REx CHO; conditions: CHO hGPR17, Schild analysis against MDL29,951, activity range; read-out: cAMP assay pA2 (converted)
Protocol: Flp-In T-REx CHO cells stably expressing human GPR17 receptor (CHO hGPR17) from Evi Kostenis' lab (Bonn University, Germany) were cultured at 37° C. in a humidified atmosphere of 5% CO2. Cells were grown in DMEM with Nutrient Mixture F-12 supplemented with hygromycin B (500 μg/ml) and blasticidin (30 μg/ml). Expression from the Flp-In locus was induced by treatment with doxycycline (1 μg/ml) for 16-20 h prior assays.
GPR17 activation can also recruit Gi-type G-protein signaling, resulting in a decrease of intracellular cyclic adenosine monophosphate (cAMP). Intracellular cAMP changes can be measured using the HTRF cAMP dynamic assay kit from CisBio (Codolet, France). Using homogenous time-resolved fluorescence technology (HTRF), the assay is based on competition between native cAMP produced by cells and cAMP labelled with the dye d2. The tracer binding was determined by an anti-cAMP antibody labeled with cryptate.
CHO hGPR17 were detached with PBS containing EDTA and dispatched in black 384-well plates with 5,000 cells per well. Cells were first incubated for 30 minutes at room temperature in HBSS Hepes (pH 7.4) containing vehicle or varying concentrations of test GPR17 antagonist/inverse agonist compounds. Then, a dose response curve of MDL29,951 GPR17 agonist (typically from 10^−5 M to 10^−10 m) was added on vehicle and on each test GPR17 antagonist/inverse agonist compound concentration in a final volume of 20 μL HBSS Hepes buffer (pH 7.4) containing 1% DMSO, 5 μM forskolin and 0.1 mM IBMX. After 60 minutes incubation at room temperature, the reaction is terminated and the cells lysed by adding the d2 detection reagent and the cryptate reagent in 10 μL lysis buffer each according to manufacturer's instructions. After 60 minutes incubation, changes in cAMP concentrations are measured according to manufacturer's instructions using an Envision plate reader with laser excitation. All incubations were performed in duplicate. Data was analyzed using GraphPad Prism software using the 4-parameter logistic equation to measure MDL29,951 pEC50s in absence and presence of GPR17 antagonist/inverse agonist test compounds. Dose ratio (DR) were plotted against antagonist concentrations and Schild analysis provided estimated affinity pA2 of GPR17 antagonist/inverse agonist test compounds.
Target sequence in this assay (Q13304 whole entry): as the sequence (Q13304 whole entry, species assumed) above

Question: For `O=S(=O)(Nc1nc(F)c(OCCF)cc1F)c1c[nH]c2c(OC(F)(F)F)c(Cl)ccc12` [Example I-18, 6-chloro-N-[3,6-difluoro-5-(2-fluoroethoxy)pyridin-2-yI]-7-(trifluoromethoxy)-1H-indole-3-sulfonamide], which Kb is on record?
Answer: 3.16 to 31.6 nM

Question: For `COc1cc(OC(F)F)cnc1NS(=O)(=O)c1c[nH]c2c(C(F)F)c(Cl)ccc12` [Example I-17, 6-chloro-N-[5-(difluoromethoxy)-3-methoxypyridin-2-yl]-7-(difluoromethyl)-1H-indole-3-sulfonamide], which Kb is on record?
Answer: 3.16 to 31.6 nM

Question: For `COc1cc(OC(F)F)cnc1NS(=O)(=O)c1c[nH]c2c(Cl)c(Cl)ccc12` [Example I-16, 6,7-dichloro-N-[5-(difluoromethoxy)-3-methoxypyridin-2-yl]-1H-indole-3-sulfonamide], which Kb is on record?
Answer: ≤ 3.16 nM

Question: With `O=S(=O)(Nc1nc(F)c(OCC(F)F)cc1F)c1c[nH]c2c(F)c(Cl)ccc12` [Example I-11, 6-chloro-N-[5-(2,2-difluoroethoxy)-3,6-difluoropyridin-2-yl]-7-fluoro-1H-indole-3-sulfonamide] as the molecule, how does the Kb read?
Answer: ≤ 3.16 nM

Question: For `O=S(=O)(Nc1ncc(OCCF)cc1F)c1c[nH]c2c(F)c(C(F)F)ccc12` [Example I-8, 6-(difluoromethyl)-7-fluoro-N-[3-fluoro-5-(2-fluoroethoxy)pyridin-2-yl]-1H-indole-3-sulfonamide], which Kb is on record?
Answer: > 31.6 nM

Question: With `COc1nc(NS(=O)(=O)c2c[nH]c3c(Cl)c(C(F)F)ccc23)c(F)cc1OCC(F)F` [Example I-20, 7-chloro-N-[5-(2,2-difluoroethoxy)-3-fluoro-6-methoxypyridin-2-yl]-6-(difluoromethyl)-1H-indole-3-sulfonamide] as the molecule, how does the Kb read?
Answer: ≤ 3.16 nM

Question: With `O=S(=O)(Nc1nc(F)c(OCCF)cc1F)c1c[nH]c2c(OC3CC3)c(Cl)ccc12` [Example I-2, 6-chloro-7-cyclopropyloxy-N-[3,6-difluoro-5-(2-fluoroethoxy)pyridin-2-yl]-1H-indole-3-sulfonamide] as the molecule, how does the Kb read?
Answer: ≤ 3.16 nM

Question: With `O=S(=O)(Nc1ncc(OCCF)cc1F)c1c[nH]c2c(C(F)F)c(Cl)ccc12` [Example I-7, 6-chloro-7-(difluoromethyl)-N-[3-fluoro-5-(2-fluoroethoxy)pyridin-2-yl]-1H-indole-3-sulfonamide] as the molecule, how does the Kb read?
Answer: 3.16 to 31.6 nM

Question: For `O=S(=O)(Nc1nc(F)c(OCCF)cc1F)c1c[nH]c2c(Cl)c(Cl)ccc12` [Example I-1, 6,7-dichloro-N-[3,6-difluoro-5-(2-fluoroethoxy)pyridin-2-yl]-1H-indole-3-sulfonamide], which Kb is on record?
Answer: ≤ 3.16 nM

Question: With `O=S(=O)(Nc1ncc(OCC(F)F)cc1F)c1c[nH]c2c(C(F)F)c(Cl)ccc12` [Example I-14, 6-chloro-N-[5-(2,2-difluoroethoxy)-3-fluoropyridin-2-yl]-7-(difluoromethyl)-1H-indole-3-sulfonamide] as the molecule, how does the Kb read?
Answer: 3.16 to 31.6 nM

Question: For `COc1nc(NS(=O)(=O)c2c[nH]c3c(F)c(Cl)ccc23)c(F)cc1OCCOC(F)F` [Example I-23, 6-chloro-N-[5-[2-(difluoromethoxy)ethoxy]-3-fluoro-6-methoxypyridin-2-yl]-7-fluoro-1H-indole-3-sulfonamide], which Kb is on record?
Answer: ≤ 3.16 nM

Question: Which Kb does the source give for `COc1nc(NS(=O)(=O)c2c[nH]c3c(C(F)F)c(Cl)ccc23)c(F)cc1OCC(F)F` [Example I-15, 6-chloro-N-[5-(2,2-difluoroethoxy)-3-fluoro-6-methoxypyridin-2-yl]-7-(difluoromethyl)-1H-indole-3-sulfonamide] here?
Answer: ≤ 3.16 nM

Question: Which Kb does the source give for `COc1cc(OCC(F)F)cnc1NS(=O)(=O)c1c[nH]c2c(Cl)c(Cl)ccc12` [Example I-21, 6,7-dichloro-N-[5-(2,2-difluoroethoxy)-3-methoxypyridin-2-yl]-1H-indole-3-sulfonamide] here?
Answer: 3.16 to 31.6 nM

Question: For `O=S(=O)(Nc1ncc(OCC(F)F)cc1F)c1c[nH]c2c(Cl)c(Cl)ccc12` [Example I-6, 6,7-dichloro-N-[5-(2,2-difluoroethoxy)-3-fluoropyridin-2-yl]-1H-indole-3-sulfonamide], which Kb is on record?
Answer: 3.16 to 31.6 nM

Question: With `O=S(=O)(Nc1nc(F)c(OCCF)cc1F)c1c[nH]c2c(F)c(Cl)ccc12` [Example I-10, 6-chloro-N-[3,6-difluoro-5-(2-fluoroethoxy)pyridin-2-yl]-7-fluoro-1H-indole-3-sulfonamide] as the molecule, how does the Kb read?
Answer: ≤ 3.16 nM

Question: With `COc1nc(NS(=O)(=O)c2c[nH]c3c(F)c(Cl)ccc23)c(F)cc1OCC(F)F` [Example I-22, 6-chloro-N-[5-(2,2-difluoroethoxy)-3-fluoro-6-methoxypyridin-2-yl]-7-fluoro-1H-indole-3-sulfonamide] as the molecule, how does the Kb read?
Answer: ≤ 3.16 nM

Question: With `COc1nc(NS(=O)(=O)c2c[nH]c3c(Cl)c(Cl)ccc23)c(F)cc1OCC(F)F` [Example I-13, 6,7-dichloro-N-[5-(2,2-difluoroethoxy)-3-fluoro-6-methoxypyridin-2-yl]-1H-indole-3-sulfonamide] as the molecule, how does the Kb read?
Answer: ≤ 3.16 nM

Question: With `O=S(=O)(Nc1ncc(OCC(F)F)cc1F)c1c[nH]c2c(F)c(C(F)F)ccc12` [Example I-19, N-[5-(2,2-difluoroethoxy)-3-fluoropyridin-2-yl]-6-(difluoromethyl)-7-fluoro-1H-indole-3-sulfonamide] as the molecule, how does the Kb read?
Answer: > 31.6 nM

Question: With `O=S(=O)(Nc1nc(F)c(OCCF)cc1F)c1c[nH]c2c(C3CC3)c(Cl)ccc12` [Example I-12, 6-chloro-7-cyclopropyl-N-[3,6-difluoro-5-(2-fluoroethoxy)pyridin-2-yl]-1H-indole-3-sulfonamide] as the molecule, how does the Kb read?
Answer: 3.16 to 31.6 nM

Question: With `O=S(=O)(Nc1ncc(OCCF)cc1F)c1c[nH]c2c(Cl)c(Cl)ccc12` [Example I-5, 6,7-dichloro-N-[3-fluoro-5-(2-fluoroethoxy)pyridin-2-yl]-1H-indole-3-sulfonamide] as the molecule, how does the Kb read?
Answer: 3.16 to 31.6 nM

Question: With `O=S(=O)(Nc1nc(F)c(OCCF)cc1F)c1c[nH]c2c(C(F)F)c(Cl)ccc12` [Example I-3, 6-chloro-N-[3,6-difluoro-5-(2-fluoroethoxy)pyridin-2-yl]-7-(difluoromethyl)-1H-indole-3-sulfonamide] as the molecule, how does the Kb read?
Answer: ≤ 3.16 nM
